The source of these data is US10653653B2, “Salts of 5-aminolevulinic acid and derivatives” (priority 2016, dated 2020).

Series [1] can be described thus: Measurement of hydroscopicity (weight change method). It counts as physicochemical. The note with it: sealed container, moisture of 70-85%, ambient temperature, 24 hours. As for the experimental part: Hydroscopicity of salts from present disclosure was measured using a weight change method. The test samples were placed in a sealed container with moisture of 70-85% at ambient temperature for 24 hours and their weigh change was measured. All three hydrochloride salts of 5-ALA, 5-MAL and 5-HAL, and 5-ALA TCA were hygroscopic, their weight was increased by 25˜75%.

Series [2] has as its system upper surface of the tongue. Briefly: Measurement of potential skin irritation/stimulation on tongue surface. In kind it is in vivo. Further details: key: A: no irritation; B: irritation; C: strong irritation; D: very strong irritation. Conditions: 3 mg on upper surface of the tongue for 3-5 minutes. As for the experimental part:
The potential irritation/stimulation of test samples was carried out by applying 3 mg of each sample to the upper surface of the tongue for 3-5 minutes and then evaluated.

Series [3] relates to A549 cells. Briefly: Measurement of PpIX formation in A549 cells in vitro. In kind it is cell-based, human. As for the experimental part: Test samples were dissolved with sterile saline to a concentration of 100 mM as stock solution. The stock solution was diluted to desired concentrations with culture medium or phosphate buffered solution (PBS).
A549 cells (ATCC), derived from human lung carcinoma, were grown in F12 medium (Gibco) containing 4.5 g/L glucose, 10% FCS, and penicillin/streptomycin, at 37° C. and 6% CO2 in a humid environment. For measurement purposes, the cells were sub-cultured in 48-well or 96-well dishes to give 5×10^4 cells/well 24 hours prior to incubation with test salts. The cells were washed twice with PBS and test solutions were added to the culture. After cells were incubated for 4, 8 or 24 hours, the medium was detached and the plates were rinsed twice with PBS, and PpIX natural fluorescence was measured at 360±40 nm excitation and 620±40 nm emission (CytoFluor Series 4000, Perspective Biosystems, MA, USA). The experiment was conducted in triplets.

For the compound “5-Aminolevulinic Acid 2,2,2-Trichloroacetate [5-ALA TCA]”, in series [1], the “appearance of sample after moisture exposure” value (shortened to “appearance of sample”) was “turned to a liquid due to deliquescence”. For the same compound, the “irritation/stimulation on tongue surface” value in series [2] (participant 1), in series [2] (participant 2), in series [2] (participant 3) and in series [2] (participant 4) was “B” throughout. In addition, the “Activity (relative activity to induce porphyrin formation)” value is listed as 1.00 ± 0.02 in series [3] (10 mM, 4 hrs); 1.30 ± 0.06 in series [3] (10 mM, 8 hrs); 2.50 ± 0.17 in series [3] (10 mM, 24 hrs).

For the compound `Cl.NCC(=O)CCC(=O)O` [5-ALA HCl, 5-aminolevulinic acid hydrochloride, reference compound], the “appearance of sample” value in series [1] is “turned to a liquid due to deliquescence”. For the same compound, the “irritation/stimulation on tongue surface” value in series [2] (participant 1) is “D”; in series [2] (participant 2), “C”; in series [2] (participant 3) it was “D”; in series [2] (participant 4), “C”. The “Activity (relative activity to induce porphyrin formation)” value was found to be 1.00 in series [3] (10 mM, 4 hrs); 1.42 ± 0.04 in series [3] (10 mM, 8 hrs); 2.35 ± 0.19 in series [3] (10 mM, 24 hrs).

With `CCCCCCOC(=O)CCC(=O)CN.Cl` [5-HAL HCl, Hexyl 5-aminolevulinate hydrochloride, reference compound], the “appearance of sample” value in series [1] is on record as “turned to a liquid due to deliquescence”. The “irritation/stimulation on tongue surface” value in series [2] (participant 1) is listed as “B”; in series [2] (participant 2), “C”; in series [2] (participant 3), “C”; in series [2] (participant 4), “B”. Besides, the “Activity (relative activity to induce porphyrin formation)” value in series [3] (0.5 mM, 4 hrs) is 1.20 ± 0.15; in series [3] (0.5 mM, 8 hrs), 1.57 ± 0.08; in series [3] (0.5 mM, 24 hrs), 2.92 ± 0.30; in series [3] (1 mM, 4 hrs), about 2; in series [3] (1 mM, 8 hrs), about 4; in series [3] (1 mM, 24 hrs) it was about 10.

Take `COC(=O)CCC(=O)CN.Cl` [5-MAL HCl, methyl 5-aminolevulinate hydrochloride, reference compound]: the “appearance of sample” value in series [1] was “turned to a liquid due to deliquescence”. Also, the “irritation/stimulation on tongue surface” value in series [2] (participant 1), in series [2] (participant 2), in series [2] (participant 3) and in series [2] (participant 4) was “C” in each case. The “Activity (relative activity to induce porphyrin formation)” value in series [3] (10 mM, 4 hrs) worked out at 1.27 ± 0.04; in series [3] (10 mM, 8 hrs), 1.60 ± 0.12; in series [3] (10 mM, 24 hrs), 2.22 ± 0.16.

Take “Hexyl 5-Aminolevulinate 2,2,2-Trichloroacetate [5-HAL TCA]”: the “appearance of sample” value in series [1] is given as “unchanged as crystalline solid”. Also, the “weight change (weight increase)” value in series [1] was “remained unchanged”. Moreover, the “irritation/stimulation on tongue surface” value in series [2] (participant 1) is recorded as “B”; in series [2] (participant 2), “B”; in series [2] (participant 3), “A”; in series [2] (participant 4) it was “B”. The “Activity (relative activity to induce porphyrin formation)” value in series [3] (0.5 mM, 4 hrs) is 1.15 ± 0.05; in series [3] (0.5 mM, 8 hrs) it was 1.57 ± 0.11; in series [3] (0.5 mM, 24 hrs) it was 2.72 ± 0.10; in series [3] (1 mM, 4 hrs), about 2; in series [3] (1 mM, 8 hrs), about 4; in series [3] (1 mM, 24 hrs), about 10.

Consider “Methyl 5-Aminolevulinate 2,2,2-Trichloroacetate [5-MAL TCA]”, for which, in series [1], the “appearance of sample” value was “unchanged as crystalline solid”. In series [1], the “weight change (weight increase)” value is reported as under 5%. For the same compound, the “irritation/stimulation on tongue surface” value in series [2] (participant 1), in series [2] (participant 2), in series [2] (participant 3) and in series [2] (participant 4) was “B” in each case. In addition, the “Activity (relative activity to induce porphyrin formation)” value in series [3] (10 mM, 4 hrs) stood at 1.20 ± 0.04; in series [3] (10 mM, 8 hrs) it was 1.25 ± 0.02; in series [3] (10 mM, 24 hrs) it was 2.20 ± 0.16.
